Legend:
TGFBR1 = biological target: T1, TGFBR1 (Homo sapiens, UniProt P36897); assay: KINOMEscan scanEDGE; format: binding; conditions: 20 uM
T1 construct: purchased Eurofins DiscoverX (KINOMEscan; SAFETYscan E/IC50 ELECT)

mouse TA myofibrils = assay: Myofibril ATPase, mouse TA; format: biochemical; conditions: mixed IIa, IIx, IIb
BMPR2 = biological target: T2, BMPR2 (Homo sapiens, UniProt Q13873); assay: KINOMEscan scanEDGE; format: binding; conditions: 20 uM
T2 construct: purchased Eurofins DiscoverX (KINOMEscan; SAFETYscan E/IC50 ELECT)

Human Soleus myofibrils = assay: Myofibril ATPase, human soleus; format: biochemical
Experimental: Myofibrils were prepared from various animals and tissues: rabbit psoas muscle and porcine cardiac muscle were purchased from Pel-Freez Biologicals. Human bicep and soleus muscle were purchased from BioIVT, and neonatal rat muscle was obtained in house. All myofibrils were prepared using published methods ([21]).
A lactate dehydrogenase/pyruvate kinase enzyme-coupled system ([62]) was used to monitor ATP hydrolysis rates in various muscle preparations. Rabbit psoas myofibrils were used for high-throughput screening at pCa 6.25 at 0.25 mg/mL. A multidrop cassette (Thermo Fisher Scientific) dispensed 10 μL of the coupled enzyme system, calcium, and myofibrils to 10 μL ATP, NADH and PEP to initiate the reaction prior to reading on a plate reader (Envision, Perkin Elmer) for 10 minutes per plate at room temperature. Hits were reconfirmed, and secondary assays were used to evaluate selectivity, including bovine cardiac myofibrils (pCa 5.86) and enzyme coupled hits with a hexokinase screen (Sigma-Aldrich).

CDK3 = biological target: T3, CDK3 (Homo sapiens, UniProt Q00526); assay: KINOMEscan scanEDGE; format: binding; conditions: 20 uM
T3 construct: purchased Eurofins DiscoverX (KINOMEscan; SAFETYscan E/IC50 ELECT)

[1] = biological target: T4, RSK2(Kin.Dom.1-N-terminal) (Homo sapiens, UniProt P51812); assay: KINOMEscan scanEDGE; format: binding; conditions: 20 uM
T4 construct: RSK2(Kin.Dom.1-N-terminal); purchased Eurofins DiscoverX (KINOMEscan; SAFETYscan E/IC50 ELECT)

MAPKAPK2 = biological target: T5, MAPKAPK2 (Homo sapiens, UniProt P49137); assay: KINOMEscan scanEDGE; format: binding; conditions: 20 uM
T5 construct: purchased Eurofins DiscoverX (KINOMEscan; SAFETYscan E/IC50 ELECT)
T5 sequence (P49137 whole entry): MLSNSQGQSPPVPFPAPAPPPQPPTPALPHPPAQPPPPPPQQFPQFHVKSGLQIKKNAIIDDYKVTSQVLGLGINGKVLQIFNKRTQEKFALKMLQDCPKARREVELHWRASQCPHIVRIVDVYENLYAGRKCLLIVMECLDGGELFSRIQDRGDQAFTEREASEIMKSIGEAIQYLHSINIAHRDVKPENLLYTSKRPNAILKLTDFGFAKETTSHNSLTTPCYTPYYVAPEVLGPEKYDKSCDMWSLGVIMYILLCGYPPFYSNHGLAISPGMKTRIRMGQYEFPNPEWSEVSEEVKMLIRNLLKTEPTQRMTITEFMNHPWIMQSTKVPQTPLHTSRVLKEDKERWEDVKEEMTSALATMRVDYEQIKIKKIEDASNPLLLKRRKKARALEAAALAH

T4 sequence (P51812 1-397 limits assumed): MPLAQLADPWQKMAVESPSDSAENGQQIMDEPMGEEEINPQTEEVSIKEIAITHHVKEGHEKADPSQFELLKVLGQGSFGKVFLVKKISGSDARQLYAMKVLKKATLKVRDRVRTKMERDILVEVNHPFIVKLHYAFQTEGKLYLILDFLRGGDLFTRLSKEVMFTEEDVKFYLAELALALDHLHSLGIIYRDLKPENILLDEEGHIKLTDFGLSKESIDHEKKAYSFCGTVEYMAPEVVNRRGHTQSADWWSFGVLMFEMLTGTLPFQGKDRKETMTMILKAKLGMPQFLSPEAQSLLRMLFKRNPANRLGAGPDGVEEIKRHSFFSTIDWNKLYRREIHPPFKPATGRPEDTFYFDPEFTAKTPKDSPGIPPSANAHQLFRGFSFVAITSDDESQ
T1 sequence (P36897 34-503): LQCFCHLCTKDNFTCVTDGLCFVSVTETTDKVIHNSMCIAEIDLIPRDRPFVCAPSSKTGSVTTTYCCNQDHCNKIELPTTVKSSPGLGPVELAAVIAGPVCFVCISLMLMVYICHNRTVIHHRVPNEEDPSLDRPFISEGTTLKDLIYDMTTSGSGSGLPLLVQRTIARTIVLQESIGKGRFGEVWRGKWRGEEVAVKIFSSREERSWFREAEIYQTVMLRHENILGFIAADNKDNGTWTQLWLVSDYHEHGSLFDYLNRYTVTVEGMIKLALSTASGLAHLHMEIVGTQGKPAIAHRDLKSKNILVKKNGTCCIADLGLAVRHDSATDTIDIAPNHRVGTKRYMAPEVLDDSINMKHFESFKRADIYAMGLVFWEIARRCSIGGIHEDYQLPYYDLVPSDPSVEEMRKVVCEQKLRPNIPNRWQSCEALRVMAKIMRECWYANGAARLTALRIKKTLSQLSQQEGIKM
T2 sequence (Q13873 27-1038): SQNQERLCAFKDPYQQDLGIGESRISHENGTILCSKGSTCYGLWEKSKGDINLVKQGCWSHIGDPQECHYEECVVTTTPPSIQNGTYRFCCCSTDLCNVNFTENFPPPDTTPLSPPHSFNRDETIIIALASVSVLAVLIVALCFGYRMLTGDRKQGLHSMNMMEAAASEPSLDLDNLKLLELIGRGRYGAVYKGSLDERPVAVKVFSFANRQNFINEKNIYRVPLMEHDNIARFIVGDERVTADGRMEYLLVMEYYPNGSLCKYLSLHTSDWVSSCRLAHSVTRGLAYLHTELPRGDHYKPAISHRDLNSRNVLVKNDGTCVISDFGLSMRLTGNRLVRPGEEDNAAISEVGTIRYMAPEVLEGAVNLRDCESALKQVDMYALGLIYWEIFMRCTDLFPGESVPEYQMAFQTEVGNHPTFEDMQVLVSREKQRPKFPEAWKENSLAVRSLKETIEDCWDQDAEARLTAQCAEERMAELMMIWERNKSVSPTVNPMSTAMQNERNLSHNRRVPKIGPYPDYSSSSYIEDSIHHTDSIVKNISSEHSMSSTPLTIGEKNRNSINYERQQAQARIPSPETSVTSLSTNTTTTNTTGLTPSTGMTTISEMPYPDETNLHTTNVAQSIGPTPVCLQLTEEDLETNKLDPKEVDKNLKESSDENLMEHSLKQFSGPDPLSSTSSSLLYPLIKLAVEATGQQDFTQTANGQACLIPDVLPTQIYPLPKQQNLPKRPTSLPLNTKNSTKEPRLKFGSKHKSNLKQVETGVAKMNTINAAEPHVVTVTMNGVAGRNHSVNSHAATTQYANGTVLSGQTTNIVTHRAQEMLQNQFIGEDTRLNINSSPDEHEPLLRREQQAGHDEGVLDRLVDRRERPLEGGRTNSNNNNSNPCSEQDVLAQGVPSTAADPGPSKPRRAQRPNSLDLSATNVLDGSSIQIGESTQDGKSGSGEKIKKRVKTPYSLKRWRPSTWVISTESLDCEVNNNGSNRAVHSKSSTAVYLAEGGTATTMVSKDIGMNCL
T3 sequence (Q00526 whole entry): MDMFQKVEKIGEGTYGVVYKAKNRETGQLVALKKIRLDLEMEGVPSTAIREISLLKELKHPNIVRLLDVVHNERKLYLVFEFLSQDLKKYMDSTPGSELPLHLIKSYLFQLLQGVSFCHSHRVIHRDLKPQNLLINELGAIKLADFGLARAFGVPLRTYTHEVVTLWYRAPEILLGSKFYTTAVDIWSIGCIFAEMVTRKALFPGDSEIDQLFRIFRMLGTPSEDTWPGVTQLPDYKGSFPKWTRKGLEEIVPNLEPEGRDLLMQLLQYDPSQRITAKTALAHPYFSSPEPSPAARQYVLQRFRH

With `O=c1ccc(-c2cnc(OCC(F)(F)F)nc2)nn1Cc1cncc(F)c1` [EDG-5506] the “binding, % of control” value (TGFBR1) was 100 % of control, the IC50 (mouse TA myofibrils) was 400 nM and the “binding, % of control” value (BMPR2) was 99 % of control. For the same molecule, the “Maximum Inhibition (%)” value (Human Soleus myofibrils; human soleus myofibrils) was 79%, the IC50 (Human Soleus myofibrils; human soleus, 66% Type I, 33% IIa, IIx, at pCa 50) was 1100 nM and the “binding, % of control” value (CDK3) was 100 % of control. For the same molecule, the “binding, % of control” value [1] was 90 % of control and the “binding, % of control” value (MAPKAPK2) was 100 % of control.
